# Measured values as given in US8173438B1, “Microbiological assessment method and device utilizing oxygen gradient sensing” (Photonic BioSystems, Inc., priority 1996, dated 2012).
# What was measured:
# Type in all cases: cell-based
# [1] = tested on: B. subtilis organisms; experiment: Integrated biological sensor disk antibiotic susceptibility test (oxygen consumption via luminescent signal), 400,000 cells per disk
# Experimental: In this example, organisms were applied to the integrated biological sensor disk in order to attain rapid measures of activity within the disk's microenvironment while the disk was incubated in culture media containing the antibiotic being assayed for effects on the microbial population.
# B. subtilis organisms were cultured in Trypticase Soy Broth (TSB) media to obtain an inoculum of actively growing test organisms. Twenty microliter aliquots, each containing 400,000 cells (established by subsequent plate counting), were removed, and dispensed onto 0.25 inch diameter dry oxygen-sensor disks prepared from 0.45 micron pore cellulose-ester filter membrane stock (Millipore), in a manner similar to that described in Example 7. These integrated biological sensor disks bearing organisms were placed at the bottom of sterile polypropylene vessels, to which was added 1 ml of TSB media containing penicillin at concentrations of 5 ug/ml, or 5 ng/ml, or no antibiotic in the case of the positive growth control.
# (§1) All samples were prepared and cultured in parallel, incubated at 37° C. and the oxygen consumption tracked via the integrated sensors' luminescent signals, in a manner similar to that shown in FIG. 7. […] The inhibitory effect of penicillin on organisms' growth was already manifesting itself in this time frame.
# [2] = tested on: B. subtilis organisms; experiment: Bulk-volume suspension culture antibiotic test with oxygen-sensor disk at vessel bottom; conditions: after 60 minutes, control 2%
# Experimental: Alternatively, as a comparison of outgrowth and detection of antibiotic effects under bulk-volume assay conditions, identical aliquots of B. subtilis organisms were and mixed into 1 ml samples of TSB media prepared with and without penicillin as described above and dispensed into vessels. To measure oxygen consumption of the organisms in these bulk suspension samples, oxygen-sensor disks of the same derivation as the above integrated sensors, but without organisms applied to them, were placed in the bottom of the vessels.
# as §1
# By comparison, the bulk volume cultures of B. subtilis after 60 minutes were just beginning to show indications of growth but were too early into the assay to identify inhibitory effects. The control, without antibiotic present, was just 2% above baseline, which was the same signal level as the 5 ng/ml penicillin sample. The 5 ug/ml high dose registered 1% above baseline.
# [3] = tested on: B. subtilis cells; experiment: Companion study: integrated sensor-BI, 8,000 cells collected by filtration on glass-fiber oxygen-sensor disks; conditions: for signal change: at about 3.5 hours (control 5% signal increase)
# Experimental: A similar companion study, indicated the potential of the integrated sensor-BI to detect microbial activity and identify antibiotic sensitivity in several hours, using a small number of organisms to initiate the test. Inoculum of only 8,000 B. subtilis cells were collected by filtration, similar to Example 9, on oxygen-sensor disks made from Millipore AP-40 glass-fiber filter material (0.7 micron particle retention). In about 3.5 hours, without antibiotic present, the population expanded in the integrated biological sensor control, producing a 5% level signal increase, i.e. positive indication of outgrowth. […] After 8 hours of incubation, the low-dose penicillin exposed population eventually expanded enabling assay detection of outgrowth. No activity was identified in the sample exposed to the high dose at any point over the 20 hour assay.
substance,measurement,setting,value
penicillin,sensitivity of the organisms to the antibiotic,[1]; conclusion from 5 ng/ml and 5 ug/ml samples,sensitive
same,signal increase (luminescent oxygen sensor signal above baseline),"[1]; penicillin 5 ng/ml, after 60 minutes of assay, 37° C., TSB media, control without penicillin 12%",6%
same,metabolic activity (oxygen consumption),"[1]; penicillin 5 ug/ml, throughout 40 hours of monitoring, 37° C.",no evidence of metabolic activity
same,signal above baseline,[2]; penicillin 5 ng/ml,2%
same,signal above baseline,[2]; penicillin 5 ug/ml,1%
same,activity (outgrowth / oxygen consumption),"[3]; high dose penicillin (5 ug/ml), at any point over the 20 hour assay",No activity
same,incubation time to assay detection of outgrowth,"[3]; low-dose penicillin (5 ng/ml), control about 3.5 hours",8 h
same,signal change,[3]; penicillin 5 ng/ml,No signal change
same,signal change,[3]; penicillin 5 ug/ml,No signal change
